Counter-ions that a name gives are not always drawn. Like-named read-outs stand apart in the source and are kept apart here.
How the values were obtained:
Experiment in all cases: Microculture tetrazolium assay
Assay type in all cases: cell-based
T47D = system: T47D
LOX = system: LOX
SKVLB = conditions: for VLB/OV3: IC50 ratio SKVLB/SKOV3; for IC50: SKVLB
SKOV3 = system: SKOV3
HT29 = system: HT29
[1] = Homo sapiens, SK-OV-3, SKOV3, read-out: IC50
[2] = Homo sapiens, HT-29, HT29, read-out: IC50

IC50 (T47D; Homo sapiens, read-out: IC50) | IC50 (LOX; read-out: IC50) | IC50 (SKVLB; read-out: IC50) | IC50 (SKOV3; [1]) | IC50 (HT29; [2]) | Compound | VLB/OV3 (SKVLB) | IC50 (T47D; read-out: IC50) | IC50 (SKOV3; SKOV3, read-out: IC50) | IC50 (HT29; HT29, read-out: IC50) | IC50 (SKVLB) | IC50 (T47D; Homo sapiens) | IC50 (LOX) | IC50 (SKOV3; Homo sapiens, SK-OV-3, SKOV3) | IC50 (HT29; Homo sapiens, HT-29, HT29)
0.201 µM | 0.104 µM | 0.42 µM | 0.332 µM | 0.194 µM | CCCCCC1Cc2c(O)c3c(c(O)c2C(O[C@H]2C[C@H](N)[C@H](O)[C@H](C)O2)O1)C(=O)c1ccccc1C3=O (stereo partly drawn) [BCH-2089, (1'S,1R,3R)-5,12-Dihydroxy-3-pentyl-1-(2',3',6'-trideoxy-3'-amino-L-lyxohexopyranose)-1,2,3,4-tetrahydro-(2-oxygen)-naphtacene-6,11-dione-hydrochloride] | 1.27 | – | – | – | – | – | – | – | –
0.442 µM | 0.209 µM | 0.306 µM | 0.247 µM | 0.156 µM | C[C@@H]1O[C@@H](O[C@@H]2O[C@@H](COc3ccccc3)Cc3c(O)c4c(c(O)c32)C(=O)c2ccccc2C4=O)C[C@H](N)[C@@H]1O (mixture of isomers) [BCH-2059, (1'S,1R,3S) and (1'S,1S,3R)-5,12-dihydroxy-3-phenyloxymethyl-1-(2',3',6'-trideoxy-3'-amino-L-lyxohexopyranose)-1,2,3,4-tetrahydro-(2-oxygen)-naphthacene-6,11-dione-hydrochloride] | 1.24 | – | – | – | – | – | – | – | –
15.9 µM | 4.36 µM | 39.3 µM | 10.3 µM | 2.8 µM | CC(=O)[C@@H]1CC2=C(C(=O)c3cc4ccccc4c(O)c3C2=O)[C@@H](O[C@H]2C[C@H](NC(=O)C(F)(F)F)[C@H](OS(C)(=O)=O)[C@H](C)O2)O1 [BCH-2093, (1S,1R,3S)-Methyl-(6-hydroxy-1-(2',3',4',6'-tetradeoxy-3'-trifluoroacetamido-4'-O-methanesulfonyl-L-lyxohexopyranose)-5,12-dioxo-3,4,5,12-tetrahydroanthraceno[2,3-c]pyran-3-yl)ketone] | 3.82 | – | – | – | – | – | – | – | –
1.6 µM | 0.58 µM | 3.4 µM | 1.1 µM | 0.8 µM | CC[C@H]1CO[C@H](O[C@H]2C[C@H](N)[C@H](O)[C@H](C)O2)c2c(O)c3c(c(O)c21)C(=O)c1ccccc1C3=O (mixture of isomers) [BCH-2085, (1'S,1S,4S) and (1'S,1R,4R)-5,12-dihydroxy-4-ethyl-1-(2',3',6'-trideoxy-3'-amino-L-lyxohexopyranose)-1,2,3,4-tetrahydro-(2-oxygen)-naphthacene-6,11-dione-hydrochloride] | – | – | – | – | – | – | – | – | –
47.9 µM | 31.2 µM | 32.4 µM | 27.9 µM | 31.3 µM | C[C@@H]1O[C@@H](O[C@@H]2O[C@@H](C(C)(F)F)CC3=C2C(=O)c2cc4ccccc4c(O)c2C3=O)C[C@H](O)[C@@H]1O (mixture of isomers) [BCH-1663, (1'S,1S,3S) and (1'S,1R, 3R)-5,12-dioxo-3-(1,1-difluoroethyl)-6-hydroxy-1-(2',6'-dideoxy-L-lyxohexopyranose)-3,4,5,12-tetrahydroanthraceno-[2,3-c]-pyran] | 1.16 | – | – | – | – | – | – | – | –
2.97 µM | 1.23 µM | 4.52 µM | 2.65 µM | 2.53 µM | CC(=O)C1CC2=C(C(=O)c3cc4ccccc4c(O)c3C2=O)C(OC[C@H]2COC(C)(C)O2)S1 (stereo partly drawn) [BCH-1636] | 1.71 | – | – | – | – | – | – | – | –
0.146 µM | 0.314 µM | 1.94 µM | 0.447 µM | 2.66 µM | CC(=O)[C@@H]1Cc2c(O)c3c(c(O)c2[C@@H](O[C@@H]2O[C@@H](C)[C@@H](O)[C@@H](NC(=O)C(F)(F)F)C2I)O1)C(=O)c1ccccc1C3=O (stereo partly drawn) [BCH-2063] | 4.34 | – | – | – | – | – | – | – | –

More lines, now with the values behind:

Compound | IC50 (T47D; Homo sapiens, read-out: IC50) | IC50 (LOX; read-out: IC50) | IC50 (SKVLB; read-out: IC50) | IC50 (SKOV3; [1]) | IC50 (HT29; [2]) | VLB/OV3 (SKVLB) | IC50 (T47D; read-out: IC50) | IC50 (SKOV3; SKOV3, read-out: IC50) | IC50 (HT29; HT29, read-out: IC50) | IC50 (SKVLB) | IC50 (T47D; Homo sapiens) | IC50 (LOX) | IC50 (SKOV3; Homo sapiens, SK-OV-3, SKOV3) | IC50 (HT29; Homo sapiens, HT-29, HT29)
CC[C@@H]1CC2=C(C(=O)c3cc4ccccc4c(O)c3C2=O)[C@@H](O)O1 (relative stereo) [BCH-1162, (trans)-1,6-Dihydroxy-3-ethyl-1,2,3,4-tetrahydro-(2-oxygen) naphtacene-5,12-dione] | 2.57 µM | > 100 µM | 2.7 µM | 1.16 µM | 4.17 µM | 2.33 | – | – | – | – | – | – | – | –
COCOCC(=O)C1CC2=C(C(=O)c3cc4ccccc4c(O)c3C2=O)C(O[C@H]2C[C@H](NC(=O)C(F)(F)F)[C@H](OC(=O)c3ccc([N+](=O)[O-])cc3)[C@H](C)O2)O1 (stereo partly drawn) [BCH-732] | 100 µM | 48 µM | 100 µM | 38.5 µM | 38.4 µM | – | – | – | – | – | – | – | – | –
CC(=O)OCC1(C2CC3=C(C(=O)c4cc5ccccc5c(OC(C)=O)c4C3=O)C(O)O2)OCCCO1 (stereo not drawn) [BCH-734] | – | 9.76 µM | 8.97 µM | – | – | 1.02 | 6.41 µM | 8.82 µM | 5.77 µM | – | – | – | – | –
CC(=O)C1CC2=C(C(=O)c3cc4ccccc4c(O)c3C2=O)C(O[C@H]2C[C@H](NC(=O)C(F)(F)F)[C@H](O)[C@H](C)O2)S1 (stereo partly drawn) [BCH-1635] | 3.11 µM | 1 µM | 3.18 µM | 1.99 µM | 0.876 µM | 1.60 | – | – | – | – | – | – | – | –
CC(=O)C1CC2=C(C(=O)c3cc4ccccc4c(O)c3C2=O)C(OCCN)S1 (stereo not drawn) [BCH-1628] | 2.89 µM | 3.52 µM | – | 2.71 µM | 3.43 µM | 2.18 | – | – | – | 5.92 µM | – | – | – | –
COC(=O)C1CC2=C(CS1)C(=O)c1c(cc3ccccc3c1O)C2=O (stereo not drawn) [BCH-1150] | 78.3 µM | 84.6 µM | 100 µM | 100 µM | 64.1 µM | – | – | – | – | – | – | – | – | –
CC(=O)[C@@H]1CC2=C(C(=O)c3cc4ccccc4c(O)c3C2=O)[C@@H](O[C@H]2O[C@H](CO)[C@@H](O)[C@H](O)[C@H]2NC(=O)N(CCCl)N=O)O1 [BCH-2073, (1'R, 1R,3S)-3-Aceto-6-hydroxy-1-(2-deoxy-2-chloroethylnitrosoureido-D-glucopyranose)-5,12-dioxo-3,4,5,12-tetrahydro-1H-anthra[2,3-C]pyran] | – | – | – | – | – | 2.67 | – | – | – | 13.7 µM | 6.12 µM | 0.807 µM | 5.14 µM | 6.59 µM
CCN(CC)C(=O)[C@@H]1CC2=C(C(=O)c3cc4ccccc4c(O)c3C2=O)[C@@H](O[C@H]2C[C@H](NC(=O)C(F)(F)F)[C@H](O)[C@H](C)O2)O1 [BCH-1656] | 5.19 µM | 3.86 µM | 7.07 µM | – | 3.77 µM | 1.72 | – | – | – | – | – | – | 4.12 µM | –
C[C@@H]1O[C@@H](O[C@H]2O[C@H](C3(CO)OCCCO3)CC3=C2C(=O)c2cc4ccccc4c(O)c2C3=O)C[C@H](N)[C@@H]1O [BCH-1153] | 4.65 µM | 2.9 µM | 14.9 µM | 3.02 µM | 2.94 µM | 4.93 | – | – | – | – | – | – | – | –
(1'S,1R,3S) and (1'S,1S,3R)-Methyl-1-(2',3',6'-trideoxy-3-trifluoroacetamido-4'-O-p-nitrobenzoyl-L-lyxohexopyranose)-6,11'dioxo-5'-hydroxy-12-acetoxy-3,4,6,11-tetrahydroanthra-ceno-[2,3-C]-pyran-3-yl) ketone [BCH-1163] | – | 26.1 µM | 11.6 µM | – | – | 1.05 | 5 µM | 11 µM | 4.67 µM | – | – | – | – | –
CC1(C2CC3=C(CO2)C(=O)c2c(cc4ccccc4c2O)C3=O)OCCO1 (stereo not drawn) [BCH-1112] | 9.09 µM | 5.32 µM | 2.83 µM | 5.16 µM | 5.47 µM | 0.55 | – | – | – | – | – | – | – | –
COC(=O)C1CC2=C(CS1)C(=O)c1cc3ccccc3c(O)c1C2=O (stereo not drawn) [BCH-1149] | 38.5 µM | 25.3 µM | 41.5 µM | 30 µM | 29.7 µM | 1.38 | – | – | – | – | – | – | – | –

From patent US5593970A, “Heterocyclic anthracycline analogs” (priority 1994, dated 1997)
